Assay results as given in US20260242440A1, “NOVEL MEANS TO MODULATE NMDA RECEPTOR-MEDIATED TOXICITY” (FUNDAMENTAL PHARMA GMBH, priority 2018, published 2026).

What was measured:
[1] = test system: primary mouse hippocampal neurons; test: NMDA induced cell death (excitotoxicity) in cultured primary neurons; type: cell-based; conditions: polypeptide expressed via rAAV infection on DIV3; NMDA 20 μM for 10 min; cell death assessed 24 h later
[2] = target: T1, NMDA receptor/TRPM4 complex (Mus musculus, UniProt Q7TN37); test: co-immunoprecipitation of NMDA receptor/TRPM4 complex from mouse cortical lysates after i.p. injection; type: in vivo
T1 construct: cortical lysates were obtained from control mice and from mice 2 h, 6 h and 24 h following intraperitoneal injection; from tissue; host or cells: mouse cortex (lysate after i.p. injection of compound P4)
Description: In a further experiment it was assessed whether compound P4 has any impact on NMDA receptor/TRPM4 complex formation. For this purpose, co-immunoprecipitation experiments using brain lysates from the mouse cortex where carried out. Briefly, cortical lysates were obtained from control mice and from mice 2 h, 6 h and 24 h following intraperitoneal injection of compound P4 (40 mg/kg) in immunoprecipitation buffer (10 mM Tris, pH 8.0, 150 mM NaCl, 1 mM EDTA, 1% NP-40, 10% glycerol with Protease Inhibitor Cocktail, Roche) for 60 min. The lysate was then centrifuged for 12 min at 1200 g to remove cell debris and nuclei. The mixture of supernatant was incubated with anti-TRPM4 antibodies overnight. Pierce™ Protein A Magnetic Beads were added to the mixture and mixed another 12 h, followed by 3 washes with immunoprecipitation buffer. The precipitates were subsequently boiled in protein loading buffer and separated in 7.5% SDS-PAGE.

T1 sequence (Q7TN37 whole entry, one chain of several): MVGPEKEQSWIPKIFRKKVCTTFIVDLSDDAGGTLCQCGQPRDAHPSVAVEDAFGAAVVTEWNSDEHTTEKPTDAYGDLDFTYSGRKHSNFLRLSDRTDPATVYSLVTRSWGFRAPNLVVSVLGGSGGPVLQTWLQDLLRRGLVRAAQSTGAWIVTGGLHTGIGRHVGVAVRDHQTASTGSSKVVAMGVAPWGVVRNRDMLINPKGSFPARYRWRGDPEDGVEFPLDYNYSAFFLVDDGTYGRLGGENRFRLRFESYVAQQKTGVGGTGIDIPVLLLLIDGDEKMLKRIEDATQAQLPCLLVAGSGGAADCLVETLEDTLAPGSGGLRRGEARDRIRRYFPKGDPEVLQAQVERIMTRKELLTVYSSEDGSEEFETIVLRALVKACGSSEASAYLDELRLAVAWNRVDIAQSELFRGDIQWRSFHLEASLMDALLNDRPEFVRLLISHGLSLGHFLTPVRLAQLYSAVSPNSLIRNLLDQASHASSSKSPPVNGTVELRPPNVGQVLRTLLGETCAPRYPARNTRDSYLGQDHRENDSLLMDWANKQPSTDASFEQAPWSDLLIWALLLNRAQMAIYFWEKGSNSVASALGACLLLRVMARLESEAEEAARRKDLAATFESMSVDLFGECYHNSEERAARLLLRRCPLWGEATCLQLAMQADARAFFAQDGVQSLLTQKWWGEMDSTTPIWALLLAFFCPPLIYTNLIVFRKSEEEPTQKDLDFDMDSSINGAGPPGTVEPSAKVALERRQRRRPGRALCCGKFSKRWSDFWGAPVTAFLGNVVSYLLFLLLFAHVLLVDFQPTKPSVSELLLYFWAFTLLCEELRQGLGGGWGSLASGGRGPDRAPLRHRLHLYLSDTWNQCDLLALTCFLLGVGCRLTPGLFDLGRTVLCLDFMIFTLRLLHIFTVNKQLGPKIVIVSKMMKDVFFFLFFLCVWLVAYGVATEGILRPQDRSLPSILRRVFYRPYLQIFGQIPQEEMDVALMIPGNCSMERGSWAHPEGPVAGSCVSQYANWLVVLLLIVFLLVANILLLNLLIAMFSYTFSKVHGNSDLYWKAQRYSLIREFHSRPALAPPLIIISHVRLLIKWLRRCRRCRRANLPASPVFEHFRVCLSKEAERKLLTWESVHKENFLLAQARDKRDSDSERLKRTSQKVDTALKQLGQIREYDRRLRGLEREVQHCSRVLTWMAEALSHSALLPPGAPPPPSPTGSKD

Compound	protection against NMDA induced cell death (neuroprotective effect) [1]	reduction in NMDA receptor/TRPM4 complex formation ([2]; 2 h after single i.p. injection of 40 mg/kg) [%]	reduction in NMDA receptor/TRPM4 complex formation ([2]; 6 h after single i.p. injection of 40 mg/kg) [%]	NMDA receptor/TRPM4 complex formation ([2]; 24 h after i.p. injection of 40 mg/kg)
SEQ ID NO:5: polypeptide, amino acid residues 633-689 of mouse TRPM4 (NSEERAARLLLRRCPLWGEATCLQLAMQADARAFFAQDGVQSLLTQKWWGEMDSTTP; listed as Mus musculus)	neuroprotective			
CCN(CCN)Cc1cccc(Br)c1 [P4]		51	61	had reformed
